Assay [1] deals with human platelets (PRP stimulated with ADP). Nature of the assay: Peptide inhibition of platelet aggregation, light transmission aggregometry in human PRP/ADP. It counts as cell-based. The settings on record: for Peptide Inhibition of Platelet Aggregation, pass/fail result: criterion: inhibition of platelet aggregation, FMP2 IC50 ≤ FMP1 IC50; for IC50: human PRP/ADP, final aggregation, log-dose vs response fit, approximate. The text has this: The properties of the FMP2 peptide and peptide-decorated particles (synthetic platelet) were compared to those of the old FMP1 peptide. First, Chang et al. have shown that cyclic RGD peptides are able to selectively bind to activated platelets and prevent human platelet aggregation as measured via platelet light transmission aggregometry. This protocol was adapted and performed to compare the IC50 values of FMP1 and FMP2. Specifically, human whole blood was drawn from healthy, aspirin refraining donors via venipuncture into syringe containing 3.8% w/v sodium citrate. Platelet rich plasma (PRP) was obtained by centrifugation of whole blood in a tabletop centrifuge at 150×g for 15 minutes. Platelet aggregation experiments were performed with 225 μl of 25% o (v/v) diluted PRP stimulated with 25 μl of 10 μM adenosine 5′-diphosphate (ADP) (or saline as a negative control) on a Bio/Data PAP-8E Platelet Aggregation Profiler. 20 μl of saline containing 0.0001 μM to 250 μM of FMP1 or FMP2 (at each order of magnitude) were added to the 25% o diluted PRP, and final aggregation percentage was recorded. In GraphPad Prism®, a non-linear fit of log-dose vs. response was applied to the data, and the IC50 for each peptide was determined by calculating the intersection point at y=50.

Assay [2] has as its target GPIIb/IIIa on active human platelets (human) (UniProt P08514). The assay can be described thus: cell-based or functional assay.
Chain of UniProt P08514 (P08514 32-1039, chain 1 of 2): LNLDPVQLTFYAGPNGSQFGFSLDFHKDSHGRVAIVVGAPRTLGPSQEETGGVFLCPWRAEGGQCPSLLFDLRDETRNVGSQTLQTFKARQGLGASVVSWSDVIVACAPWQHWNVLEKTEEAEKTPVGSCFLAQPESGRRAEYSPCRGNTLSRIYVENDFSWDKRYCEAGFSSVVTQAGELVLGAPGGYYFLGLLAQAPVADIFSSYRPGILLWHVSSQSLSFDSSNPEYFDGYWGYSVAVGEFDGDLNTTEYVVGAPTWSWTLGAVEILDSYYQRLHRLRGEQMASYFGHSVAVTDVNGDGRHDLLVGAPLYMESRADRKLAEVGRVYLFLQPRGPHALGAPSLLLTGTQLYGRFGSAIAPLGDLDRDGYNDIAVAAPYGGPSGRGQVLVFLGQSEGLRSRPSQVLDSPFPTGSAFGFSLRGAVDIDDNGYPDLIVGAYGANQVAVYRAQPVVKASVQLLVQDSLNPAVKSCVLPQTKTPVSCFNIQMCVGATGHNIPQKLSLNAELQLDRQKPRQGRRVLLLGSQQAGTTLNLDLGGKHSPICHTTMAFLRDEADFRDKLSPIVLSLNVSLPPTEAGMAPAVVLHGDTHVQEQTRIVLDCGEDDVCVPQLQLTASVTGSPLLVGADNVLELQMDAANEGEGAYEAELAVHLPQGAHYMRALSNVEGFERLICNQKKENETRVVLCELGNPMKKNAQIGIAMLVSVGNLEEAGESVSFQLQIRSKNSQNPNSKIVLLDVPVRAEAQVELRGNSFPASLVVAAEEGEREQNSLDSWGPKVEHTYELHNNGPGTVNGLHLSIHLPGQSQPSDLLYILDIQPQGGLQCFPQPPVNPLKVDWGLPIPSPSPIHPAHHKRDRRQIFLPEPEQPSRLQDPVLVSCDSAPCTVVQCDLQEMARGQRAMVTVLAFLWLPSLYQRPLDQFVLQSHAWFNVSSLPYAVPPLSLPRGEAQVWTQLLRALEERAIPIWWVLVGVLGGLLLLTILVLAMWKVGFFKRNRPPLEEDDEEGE
Chain of UniProt P08514 (P05106 27-788, chain 2 of 2, further chain): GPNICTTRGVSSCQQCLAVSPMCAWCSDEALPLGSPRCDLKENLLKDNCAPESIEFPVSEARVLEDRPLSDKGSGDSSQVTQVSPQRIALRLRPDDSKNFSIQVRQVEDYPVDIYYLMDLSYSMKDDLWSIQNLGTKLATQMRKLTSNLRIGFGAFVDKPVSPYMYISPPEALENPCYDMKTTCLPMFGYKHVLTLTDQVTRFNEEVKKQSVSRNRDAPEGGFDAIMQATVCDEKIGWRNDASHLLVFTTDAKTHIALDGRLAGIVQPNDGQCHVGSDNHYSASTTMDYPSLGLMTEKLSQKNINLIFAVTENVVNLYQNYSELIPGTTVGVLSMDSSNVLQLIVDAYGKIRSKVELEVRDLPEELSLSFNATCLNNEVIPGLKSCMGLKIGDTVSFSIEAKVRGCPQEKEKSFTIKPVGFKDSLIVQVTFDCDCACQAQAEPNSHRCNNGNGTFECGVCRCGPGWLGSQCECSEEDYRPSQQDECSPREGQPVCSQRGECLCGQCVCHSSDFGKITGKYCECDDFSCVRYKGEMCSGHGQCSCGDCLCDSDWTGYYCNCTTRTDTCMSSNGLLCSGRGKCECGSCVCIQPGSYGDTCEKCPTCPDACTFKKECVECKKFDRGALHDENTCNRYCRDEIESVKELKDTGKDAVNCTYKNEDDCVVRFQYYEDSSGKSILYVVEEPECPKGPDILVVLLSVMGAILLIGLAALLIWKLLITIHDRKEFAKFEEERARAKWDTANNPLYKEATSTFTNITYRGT

Where “and” joins values, the source holds several entries; their conditions need not be identical. Identical values can stand only once. Where a SMILES comes first, the peptide text is derived from it. Bridges are numbered along the chain shown (N, C = ends). [ ]: non-standard residue; d: D form. Pra = C#CC[C@H](N)C(=O)O; βAla = NCCC(=O)O

Here are results for four molecules from patent publication US20260193319A1, “PLATELET-BINDING PROTEINS AND CONJUGATES THEREOF, PARTICLES COMPRISING THEM AND USES THEREOF” (Haima Therapeutics, LLC, priority 2022, published 2026).

In the case of `CCOc1ccc(C[C@@H]2NC(=O)[C@H](CC(=O)O)NC(=O)CNC(=O)[C@H](CCCNC(=N)N)NC(=O)[C@@H]3CCCN3C(=O)[C@H](CC(N)=O)NC(=O)[C@H](CS)NC(=O)CCNC(=O)[C@H](CCCNC(=N)N)NC2=O)cc1` [FMP2, cyclo-(CNPRGD{Tyr(OEt)}R-β-A)] (cyclo(CNPRGDY(Et)R[βAla])), the “concentrations inhibiting platelet aggregation, FMP2 relative to FMP1” value in assay [1] (comparison of IC50) was “over three orders of magnitude below FMP1”. In assay [1], the “Peptide Inhibition of Platelet Aggregation, pass/fail result” value was “Pass”; the IC50 is ~0.13 µM and 0.13 µM.
The molecule “FMP2, cyclo-(CNPRGD{Tyr(OEt)}R-β-A) trifluoroacetate salt (peptide)” registered an IC50 of inhibition of ADP-stimulated human platelet aggregation (light transmission aggregometry, diluted PRP, final aggregation %) in assay [2] of 0.13 µM.
“FMP1, cyclo-{Pra}CNPRGD{Tyr(OEt)}RC trifluoroacetate salt (peptide)”: the IC50 of inhibition of ADP-stimulated human platelet aggregation (light transmission aggregometry, diluted PRP, final aggregation %) in assay [2] stood at 537 µM.
Consider `C#CC[C@H](N)C(=O)N[C@H]1CSSC[C@@H](C(=O)O)NC(=O)[C@H](CCCNC(=N)N)NC(=O)[C@H](Cc2ccc(OCC)cc2)NC(=O)[C@H](CC(=O)O)NC(=O)CNC(=O)[C@H](CCCNC(=N)N)NC(=O)[C@@H]2CCCN2C(=O)[C@H](CC(N)=O)NC1=O` [FMP1, cyclo-{Pra}CNPRGD{Tyr(OEt)}RC, reference compound] (H-[Pra]CNPRGDY(Et)RC-OH; disulfide 2-10; N-terminus and C-terminus assumed), for which, in assay [1], the “Peptide Inhibition of Platelet Aggregation, pass/fail result” value is “Pass”; the IC50 is ~537 µM and 537 µM.

In general, IC50 refers to the concentration needed to halve the response being measured. High values mean weaker potency in that assay, low ones greater potency in that assay.
